In brackets after ≈: the same amount, converted by molar mass. Several values for one entry are separate records, joined by “and”; a condition that tells them apart may be missing. Equal entries are not always repeated. Each block holds one molecule with its values, some of them ahead of it.
Tests used:
Experiment in all cases: ≥ marks a high value that may be exact or a test limit, other limits are often not marked, values filed in µg/mL are converted to µM
Fusarium culmorum = tested on: Fusarium culmorum
Fusarium oxysporum = tested on: Fusarium oxysporum
Aspergillus fumigatus = tested on: Aspergillus fumigatus
Trichoderma viride = tested on: Trichoderma viride
[1] = tested on: Trichophyton mentagrophytes
Saccharomyces cerevisiae = tested on: Saccharomyces cerevisiae
Staphylococcus aureus = tested on: Staphylococcus aureus
Shigella dysenteriae = tested on: Shigella dysenteriae
[2] = tested on: Candida albicans ATCC 2002
[3] = tested on: Escherichia coli ATCC 25922
[4] = tested on: Staphylococcus aureus ATCC 2592
Bacillus pumilus = tested on: Bacillus pumilus
Pseudomonas aeruginosa = tested on: Pseudomonas aeruginosa
Bacillus cereus = tested on: Bacillus cereus
[5] = tested on: Acinetobacter calcoaceticus
Bacillus subtilis = tested on: Bacillus subtilis
Candida krusei ATCC 6258 = tested on: Candida krusei ATCC 6258
[6] = tested on: Staphylococcus epidermidis ATCC 12228
Salmonella typhimurium = tested on: Salmonella typhimurium
[7] = tested on: Klebsiella pneumoniae ATCC 700603
[8] = tested on: Bacillus subtilis CCT 2576
[9] = tested on: Cronobacter sakazakii ATCC 29544
[10] = tested on: Candida parapsilosis ATCC 22019
[11] = tested on: Bacillus subtilis ATCC 23857
Escherichia coli ML-35 = tested on: Escherichia coli ML-35
[12] = tested on: Candida glabrata ATCC 2001
[13] = tested on: Pseudomonas aeruginosa ATCC 15422
[14] = tested on: Staphylococcus epidermidis
[15] = tested on: Candida albicans ATCC 14053
[16] = tested on: Candida tropicalis ATCC 750
[17] = tested on: Pseudomonas aeruginosa ATCC 27853
Escherichia coli = tested on: Escherichia coli
[18] = tested on: Staphylococcus aureus ATCC 29213
Klebsiella pneumoniae = tested on: Klebsiella pneumoniae
[19] = tested on: Staphylococcus aureus ATCC 6538
Candida albicans 105 = tested on: Candida albicans 105
[20] = tested on: Staphylococcus aureus NCTC 4163
[21] = tested on: Pseudomonas aeruginosa PAO1
[22] = tested on: Staphylococcus aureus R147
[23] = tested on: Pseudomonas aeruginosa Z61
Escherichia coli UB1005 = tested on: Escherichia coli UB1005
[24] = tested on: Salmonella enterica serovar Typhimurium MS4252S
[25] = tested on: Enterococcus faecalis ATCC 29212
Candida albicans 3153A = tested on: Candida albicans 3153A
Escherichia coli DC2 = tested on: Escherichia coli DC2
[26] = tested on: Staphylococcus aureus 1056
Escherichia coli O111 = tested on: Escherichia coli O111
[27] = tested on: Salmonella enterica subsp. enterica serovar Typhimurium ATCC 14028s
Escherichia coli O157:H7 = tested on: Escherichia coli O157:H7

MIC (Fusarium culmorum): 2.21 µM (≈ 9.04 µg/mL)
MIC (Fusarium oxysporum): 4.42 µM (≈ 18.1 µg/mL)
MIC (Aspergillus fumigatus): 17.7 µM (≈ 72.4 µg/mL)
MIC (Trichoderma viride): 4.42 µM (≈ 18.1 µg/mL)
MIC [1]: ≥ 35.4 µM
MIC (Saccharomyces cerevisiae): ≥ 35.4 µM
MIC (Staphylococcus aureus): 1.1 µM (≈ 4.52 µg/mL)
SMILES: CC[C@H](C)[C@@H]1NC(=O)[C@@H]2CSSC[C@@H](C(=O)N[C@@H](CCCN=C(N)N)C(=O)N[C@@H](CCCN=C(N)N)C(=O)O)NC(=O)[C@H]([C@@H](C)O)NC(=O)[C@@H]3CSSC[C@H](NC(=O)[C@H](C)NC(=O)[C@H](C)NC(=O)[C@H](Cc4cnc[nH]4)NC(=O)CNC(=O)[C@H](C(C)C)NC(=O)CNC(=O)[C@H](Cc4ccccc4)NC(=O)[C@H](C)NC(=O)[C@H](CO)NC(=O)[C@H](CC(C)C)NC(=O)[C@H](CC(C)C)NC(=O)[C@H](CC(=O)O)NC(=O)[C@@H](NC(=O)[C@@H](NC(=O)[C@H](C)N)[C@@H](C)O)CSSC[C@H](NC(=O)[C@H](Cc4ccc(O)cc4)NC(=O)CNC(=O)CNC(=O)[C@H](CCCN=C(N)N)NC(=O)[C@H](Cc4ccc(O)cc4)NC(=O)CNC(=O)[C@H](Cc4cnc[nH]4)NC(=O)CNC1=O)C(=O)N[C@@H](CC(N)=O)C(=O)N[C@@H](CO)C(=O)N[C@@H](CCCCN)C(=O)N[C@@H](C)C(=O)N[C@@H](C(C)C)C(=O)N3)C(=O)N[C@@H](C)C(=O)N[C@@H](C)C(=O)N[C@@H](Cc1cnc[nH]1)C(=O)N2 [ATCDLLSAFGVGHAACAAHCIGHGYRGGYCNSKAVCTCRR]

MIC (Shigella dysenteriae): 2.91 µM (≈ 5 µg/mL)
MIC [2]: 0.726 µM (≈ 1.25 µg/mL)
MIC [3]: 0.726 µM (≈ 1.25 µg/mL)
MIC [4]: 0.726 µM (≈ 1.25 µg/mL)
MIC (Bacillus pumilus): 2.91 µM (≈ 5 µg/mL)
MIC (Pseudomonas aeruginosa): 2.91 µM (≈ 5 µg/mL)
MIC (Bacillus cereus): 8.72 µM (≈ 15 µg/mL)
MIC [5]: 8.72 µM (≈ 15 µg/mL)
SMILES: CC[C@H](C)[C@H](NC(=O)[C@@H]1CCCN1C(=O)[C@H](Cc1ccccc1)NC(=O)[C@@H](N)Cc1ccccc1)C(=O)N[C@H](C(=O)NCC(=O)N[C@@H](CCCCN)C(=O)N[C@@H](CC(C)C)C(=O)N[C@@H](CC(C)C)C(=O)N[C@@H](Cc1ccccc1)C(=O)NCC(=O)N[C@@H](CC(C)C)C(=O)N[C@@H](CO)C(=O)NCC(=O)N[C@@H](CC(C)C)C(=O)N[C@@H](CC(C)C)C(N)=O)C(C)C [FFPIVGKLLFGLSGLL]

MIC (Bacillus subtilis): 7.55 µM (≈ 12.5 µg/mL)
MIC (Candida krusei ATCC 6258): 8 µM (≈ 13.2 µg/mL)
MIC [6]: 32 µM and > 16 µM
MIC (Shigella dysenteriae): ≥ 45.3 µM
MIC (Salmonella typhimurium): ≥ 60.4 µM
MIC [7]: 64 µM (≈ 106 µg/mL)
MIC [8]: 2.42 µM (≈ 4 µg/mL)
MIC [9]: ≥ 64 µM
MIC [10]: ≥ 64 µM
MIC [11]: 8 µM and 4 µM
MIC (Escherichia coli ML-35): ≥ 32 µM
MIC [12]: 8 µM (≈ 13.2 µg/mL)
MIC [13]: 4.83 µM (≈ 8 µg/mL)
MIC [14]: ≥ 60.4 µM
MIC [15]: 8 µM (≈ 13.2 µg/mL)
MIC [16]: 8 µM (≈ 13.2 µg/mL)
MIC [17]: 128 µM (≈ 212 µg/mL)
MIC (Escherichia coli): 45.3 µM (≈ 75 µg/mL)
MIC (Pseudomonas aeruginosa): > 60.4 µM
MIC (Staphylococcus aureus): 11.4 µM (≈ 18.8 µg/mL)
MIC [18]: 32 µM (≈ 52.9 µg/mL)
MIC (Klebsiella pneumoniae): 22.7 µM (≈ 37.5 µg/mL)
MIC [19]: 9.06 µM (≈ 15 µg/mL)
SMILES: CC[C@H](C)[C@H](N)C(=O)N[C@@H](CC(=O)O)C(=O)N[C@@H](Cc1c[nH]c2ccccc12)C(=O)N[C@@H](CCCCN)C(=O)N[C@@H](CCCCN)C(=O)N[C@@H](CC(C)C)C(=O)N[C@@H](CC(C)C)C(=O)N[C@@H](CC(=O)O)C(=O)N[C@@H](C)C(=O)N[C@@H](C)C(=O)N[C@@H](CCCCN)C(=O)N[C@@H](CCC(N)=O)C(=O)N[C@H](C(=O)N[C@@H](CC(C)C)C(N)=O)[C@@H](C)CC [IDWKKLLDAAKQIL]

MIC (Candida albicans 105): 10.6 µM (≈ 32 µg/mL)
MIC [20]: 10.6 µM (≈ 32 µg/mL)
MIC [21]: 1.33 µM (≈ 4 µg/mL)
MIC [22]: 21.3 µM (≈ 64 µg/mL)
MIC [23]: 2.66 µM (≈ 8 µg/mL)
MIC (Escherichia coli UB1005): 0.0416 µM (≈ 0.125 µg/mL)
MIC [24]: 0.0416 µM (≈ 0.125 µg/mL)
MIC [25]: 10.6 µM (≈ 32 µg/mL)
MIC [14]: 5.32 µM (≈ 16 µg/mL)
MIC (Candida albicans 3153A): 5.32 µM (≈ 16 µg/mL)
MIC (Escherichia coli DC2): 0.0416 µM (≈ 0.125 µg/mL)
MIC [26]: 5.32 µM and 8.65 µM
MIC (Escherichia coli O111): 0.665 µM (≈ 2 µg/mL)
MIC [27]: 0.166 µM (≈ 0.5 µg/mL)
MIC (Escherichia coli O157:H7): 2.66 µM and 5.42 µM
SMILES: CC[C@H](C)[C@H](NC(=O)[C@@H]1CCCN1C(=O)[C@@H]1CCCN1C(=O)[C@H](CCCN=C(N)N)NC(=O)[C@H](Cc1ccccc1)NC(=O)[C@@H](N)CCCN=C(N)N)C(=O)N[C@@H](CCCN=C(N)N)C(=O)N[C@@H](CCCN=C(N)N)C(=O)N1CCC[C@H]1C(=O)N1CCC[C@H]1C(=O)N[C@H](C(=O)N[C@@H](CCCN=C(N)N)C(=O)N1CCC[C@H]1C(=O)N1CCC[C@H]1C(=O)N[C@@H](Cc1ccccc1)C(=O)N[C@@H](CCCN=C(N)N)C(=O)N1CCC[C@H]1C(=O)N1CCC[C@H]1C(=O)N[C@@H](Cc1ccccc1)C(=O)N[C@@H](CCCN=C(N)N)C(=O)N1CCC[C@H]1C(=O)N1CCC[C@H]1C(=O)N[C@H](C(=O)N[C@@H](CCCN=C(N)N)C(N)=O)C(C)C)[C@@H](C)CC [RFRPPIRRPPIRPPFRPPFRPPVR]

— DBAASP
